# According to patent publication US12268674B2, “Mi-2β inhibitor as an immunotherapy agent” (BioVentures, LLC, priority 2021, dated 2025):
# Legend:
# Assay in all cases: ATPase profile (ATP acyl phosphate probe)
# Assay type in all cases: binding
# DCTPP1 = target: T1, DCTPP1 (Homo sapiens, UniProt Q9H773); conditions: DCTPP1, SEQ ID NO: 65, ATP BS
# T1 construct: endogenous in cells; host or cells: A375 cell lysate
# ABCB6 = target: T2, ABCB6 (Homo sapiens, UniProt Q9NP58); conditions: ABCB6, SEQ ID NO: 3, ATP BS
# T2 construct: to get the native cell lysate; host or cells: A375 cell lysate
# AFG3L2 = target: T3, AFG3L2 (Homo sapiens, UniProt Q9Y4W6); conditions: AFG3L2, SEQ ID NO: 29, ATP BS
# T3 construct: to get the native cell lysate; host or cells: A375 cell lysate
# PMS2 = target: T4, PMS2 (Homo sapiens, UniProt P54278); conditions: PMS2, SEQ ID NO: 162, ATP BS
# T4 construct: to get the native cell lysate; endogenous in cells; host or cells: A375 cell lysate
# NOP2 = target: T5, NOP2 (Homo sapiens, UniProt P46087); conditions: NOP2, SEQ ID NO: 136, ATP BS
# T5 construct: to get the native cell lysate; endogenous in cells; host or cells: A375
# TCP1 = target: T6, TCP1 (Homo sapiens, UniProt P17987); conditions: TCP1, SEQ ID NO: 200, ATP BS
# T6 construct: to get the native cell lysate; endogenous in cells; host or cells: A375 cell lysate
# RBKS = target: T7, RBKS (Homo sapiens, UniProt Q9H477); conditions: SEQ ID NO: 182, ATP BS
# T7 construct: to get the native cell lysate; endogenous in cells; host or cells: A375 cell lysate
# NDUFA10 = target: T8, NDUFA10 (Homo sapiens, UniProt O95299); conditions: NDUFA10, SEQ ID NO: 132, ATP BS
# T8 construct: to get the native cell lysate; endogenous in cells; host or cells: A375
# NMNAT3 = target: T9, NMNAT3 (Homo sapiens, UniProt Q96T66); conditions: NMNAT3, SEQ ID NO: 135, ATP BS
# T9 construct: to get the native cell lysate; endogenous in cells; host or cells: A375
# GATB = target: T10, GATB (Homo sapiens, UniProt O75879)
# T10 construct: endogenous in cells; host or cells: A375 cell lysate
# T10 sequence (O75879 31-557): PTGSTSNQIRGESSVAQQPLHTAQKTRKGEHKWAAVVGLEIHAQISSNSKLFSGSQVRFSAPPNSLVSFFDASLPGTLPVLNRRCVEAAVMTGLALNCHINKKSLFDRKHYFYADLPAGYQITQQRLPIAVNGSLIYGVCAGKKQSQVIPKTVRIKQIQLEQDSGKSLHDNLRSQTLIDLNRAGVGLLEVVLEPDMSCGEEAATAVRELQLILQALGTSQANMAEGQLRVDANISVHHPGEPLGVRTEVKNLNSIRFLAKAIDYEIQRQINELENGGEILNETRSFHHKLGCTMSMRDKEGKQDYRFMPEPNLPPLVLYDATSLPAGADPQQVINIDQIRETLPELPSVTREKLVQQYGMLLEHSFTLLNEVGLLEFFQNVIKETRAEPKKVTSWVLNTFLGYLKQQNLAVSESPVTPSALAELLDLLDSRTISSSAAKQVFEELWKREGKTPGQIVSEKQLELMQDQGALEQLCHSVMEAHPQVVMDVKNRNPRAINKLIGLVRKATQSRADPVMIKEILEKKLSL
# T10 sequence (Q9H0R6 whole entry partner): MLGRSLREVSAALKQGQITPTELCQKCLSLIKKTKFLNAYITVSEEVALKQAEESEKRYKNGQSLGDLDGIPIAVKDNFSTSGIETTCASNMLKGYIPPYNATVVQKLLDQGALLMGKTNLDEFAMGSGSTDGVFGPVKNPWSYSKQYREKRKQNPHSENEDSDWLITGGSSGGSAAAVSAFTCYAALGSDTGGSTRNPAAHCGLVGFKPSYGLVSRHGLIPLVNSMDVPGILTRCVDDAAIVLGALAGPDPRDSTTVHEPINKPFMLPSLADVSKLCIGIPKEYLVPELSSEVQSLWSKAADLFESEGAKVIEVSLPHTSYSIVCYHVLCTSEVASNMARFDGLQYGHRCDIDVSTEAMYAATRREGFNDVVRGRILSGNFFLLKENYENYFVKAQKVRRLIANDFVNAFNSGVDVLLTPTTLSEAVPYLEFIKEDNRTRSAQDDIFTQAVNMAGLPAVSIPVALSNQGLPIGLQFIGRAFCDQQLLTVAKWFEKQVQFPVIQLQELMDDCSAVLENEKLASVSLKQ
# T10 sequence (O43716 58-136 partner): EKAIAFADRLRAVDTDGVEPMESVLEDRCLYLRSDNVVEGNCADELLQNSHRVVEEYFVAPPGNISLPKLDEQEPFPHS
# ASS1 = target: T11, ASS1 (Homo sapiens, UniProt P00966); conditions: ASS1, SEQ ID NO: 43, ATP BS
# T11 construct: to get the native cell lysate; host or cells: A375 cell lysate
# RFC2 = target: T12, RFC2 (Homo sapiens, UniProt P35250); conditions: RFC2, SEQ ID NO: 184, ATP BS
# T12 construct: to get the native cell lysate; endogenous in cells; host or cells: A375 cell lysate
# UBA2 = target: T13, UBA2 (Homo sapiens, UniProt Q9UBT2)
# T13 construct: to get the native cell lysate; endogenous in cells; host or cells: A375 cell lysate
# T13 sequence (Q9UBT2 whole entry): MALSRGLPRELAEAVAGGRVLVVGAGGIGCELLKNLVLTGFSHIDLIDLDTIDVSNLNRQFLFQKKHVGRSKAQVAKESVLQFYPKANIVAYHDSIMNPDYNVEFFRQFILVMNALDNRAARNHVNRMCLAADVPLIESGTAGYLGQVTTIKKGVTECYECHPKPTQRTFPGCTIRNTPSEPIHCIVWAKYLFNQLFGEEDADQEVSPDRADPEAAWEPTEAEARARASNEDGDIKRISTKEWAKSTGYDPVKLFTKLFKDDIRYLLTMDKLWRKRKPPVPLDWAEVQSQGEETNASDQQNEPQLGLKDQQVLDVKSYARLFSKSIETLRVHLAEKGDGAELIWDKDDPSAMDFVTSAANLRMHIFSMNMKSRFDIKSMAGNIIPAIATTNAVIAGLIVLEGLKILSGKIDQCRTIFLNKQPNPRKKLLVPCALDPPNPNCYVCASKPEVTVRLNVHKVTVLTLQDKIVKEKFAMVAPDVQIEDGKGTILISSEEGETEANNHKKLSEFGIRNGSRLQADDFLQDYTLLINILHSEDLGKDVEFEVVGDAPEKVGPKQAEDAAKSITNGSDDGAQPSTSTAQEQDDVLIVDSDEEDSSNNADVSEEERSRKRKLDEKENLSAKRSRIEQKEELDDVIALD
# T13 sequence (Q9UBE0 whole entry partner): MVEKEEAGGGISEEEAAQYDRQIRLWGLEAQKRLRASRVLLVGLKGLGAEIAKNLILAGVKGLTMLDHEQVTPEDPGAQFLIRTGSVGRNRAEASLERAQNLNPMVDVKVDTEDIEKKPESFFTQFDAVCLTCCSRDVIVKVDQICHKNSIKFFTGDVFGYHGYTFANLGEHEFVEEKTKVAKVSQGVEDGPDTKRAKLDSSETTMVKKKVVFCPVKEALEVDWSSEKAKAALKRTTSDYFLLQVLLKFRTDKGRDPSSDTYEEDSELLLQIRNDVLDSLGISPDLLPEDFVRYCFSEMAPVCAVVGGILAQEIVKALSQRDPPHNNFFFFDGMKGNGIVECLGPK
# SNRNP200 = target: T14, SNRNP200 (Homo sapiens, UniProt O75643); conditions: SNRNP200, SEQ ID NO: 196, ATP BS
# T14 construct: to get the native cell lysate; endogenous in cells; host or cells: A375 cell lysate
# AK5 = target: T15, AK5 (Homo sapiens, UniProt Q9Y6K8); conditions: AK5, SEQ ID NO: 36, ATP BS
# T15 construct: to get the native cell lysate; host or cells: A375 cell lysate
# ABCC1 = target: T16, ABCC1 (Homo sapiens, UniProt P33527)
# T16 construct: to get the native cell lysate; host or cells: A375 cell lysate
# T16 sequence (P33527 whole entry): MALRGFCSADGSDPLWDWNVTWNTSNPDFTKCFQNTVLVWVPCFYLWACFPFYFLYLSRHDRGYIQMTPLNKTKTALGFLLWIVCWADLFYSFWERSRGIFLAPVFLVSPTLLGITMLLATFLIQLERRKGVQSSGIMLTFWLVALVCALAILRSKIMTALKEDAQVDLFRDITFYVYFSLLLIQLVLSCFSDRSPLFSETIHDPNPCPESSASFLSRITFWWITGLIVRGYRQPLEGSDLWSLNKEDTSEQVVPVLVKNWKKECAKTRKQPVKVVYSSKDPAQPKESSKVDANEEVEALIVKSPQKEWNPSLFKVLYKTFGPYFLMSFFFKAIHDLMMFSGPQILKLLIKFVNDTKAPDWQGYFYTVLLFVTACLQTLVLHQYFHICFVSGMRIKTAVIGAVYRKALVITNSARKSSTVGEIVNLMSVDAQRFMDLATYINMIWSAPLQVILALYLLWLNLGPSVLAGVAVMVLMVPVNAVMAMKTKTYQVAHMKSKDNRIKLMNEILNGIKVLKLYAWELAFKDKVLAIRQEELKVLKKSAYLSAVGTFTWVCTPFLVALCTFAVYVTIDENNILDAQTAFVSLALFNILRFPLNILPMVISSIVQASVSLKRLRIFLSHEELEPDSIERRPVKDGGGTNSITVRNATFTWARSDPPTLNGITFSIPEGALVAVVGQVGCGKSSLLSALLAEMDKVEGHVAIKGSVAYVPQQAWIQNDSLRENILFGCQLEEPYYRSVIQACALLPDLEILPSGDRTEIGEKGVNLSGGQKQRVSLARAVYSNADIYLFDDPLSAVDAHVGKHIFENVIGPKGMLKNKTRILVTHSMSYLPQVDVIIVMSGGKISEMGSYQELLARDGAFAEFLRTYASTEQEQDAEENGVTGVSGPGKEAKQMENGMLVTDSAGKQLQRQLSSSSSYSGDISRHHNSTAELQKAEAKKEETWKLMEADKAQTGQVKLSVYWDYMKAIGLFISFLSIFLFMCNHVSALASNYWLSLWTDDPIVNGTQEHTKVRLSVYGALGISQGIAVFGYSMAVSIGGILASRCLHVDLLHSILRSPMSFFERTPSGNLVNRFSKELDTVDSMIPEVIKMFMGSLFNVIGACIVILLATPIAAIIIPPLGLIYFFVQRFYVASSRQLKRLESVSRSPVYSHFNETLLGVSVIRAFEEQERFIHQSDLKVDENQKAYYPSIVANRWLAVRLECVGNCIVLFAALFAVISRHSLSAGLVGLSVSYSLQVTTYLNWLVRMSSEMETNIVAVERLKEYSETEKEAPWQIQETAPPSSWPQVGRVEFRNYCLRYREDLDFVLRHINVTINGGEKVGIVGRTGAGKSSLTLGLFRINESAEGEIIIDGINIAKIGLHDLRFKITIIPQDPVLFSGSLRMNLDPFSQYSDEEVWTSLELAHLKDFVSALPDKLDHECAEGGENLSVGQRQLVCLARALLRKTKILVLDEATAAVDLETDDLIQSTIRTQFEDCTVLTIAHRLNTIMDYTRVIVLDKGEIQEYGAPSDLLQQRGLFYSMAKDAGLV
# AK7 = target: T17, AK7 (Homo sapiens, UniProt Q96M32); conditions: AK7, SEQ ID NO: 37, ATP BS
# T17 construct: to get the native cell lysate; host or cells: A375 cell lysate
# NME1, NME2 = conditions: NME1, NME2, SEQ ID NO: 133, ATP BS
# RFC5 = target: T18, RFC5 (Homo sapiens, UniProt P40937); conditions: RFC5, SEQ ID NO: 186, ATP BS
# T18 construct: to get the native cell lysate; endogenous in cells; host or cells: A375 cell lysate
# [1] = tested on: ACTA2, ACTB, ACTBL2, ACTC1, ACTG1; conditions: ACTBL2, ACTC1, ACTG1, SEQ ID NO: 24, ATP BS
# SKIV2L = target: T19, SKIV2L (Homo sapiens, UniProt Q15477); conditions: SEQ ID NO: 191, ATP BS
# T19 construct: to get the native cell lysate; endogenous in cells; host or cells: A375 cell lysate
# ABCC4 = target: T20, ABCC4 (Homo sapiens, UniProt O15439)
# T20 construct: to get the native cell lysate; host or cells: A375 cell lysate
# T20 sequence (O15439 whole entry): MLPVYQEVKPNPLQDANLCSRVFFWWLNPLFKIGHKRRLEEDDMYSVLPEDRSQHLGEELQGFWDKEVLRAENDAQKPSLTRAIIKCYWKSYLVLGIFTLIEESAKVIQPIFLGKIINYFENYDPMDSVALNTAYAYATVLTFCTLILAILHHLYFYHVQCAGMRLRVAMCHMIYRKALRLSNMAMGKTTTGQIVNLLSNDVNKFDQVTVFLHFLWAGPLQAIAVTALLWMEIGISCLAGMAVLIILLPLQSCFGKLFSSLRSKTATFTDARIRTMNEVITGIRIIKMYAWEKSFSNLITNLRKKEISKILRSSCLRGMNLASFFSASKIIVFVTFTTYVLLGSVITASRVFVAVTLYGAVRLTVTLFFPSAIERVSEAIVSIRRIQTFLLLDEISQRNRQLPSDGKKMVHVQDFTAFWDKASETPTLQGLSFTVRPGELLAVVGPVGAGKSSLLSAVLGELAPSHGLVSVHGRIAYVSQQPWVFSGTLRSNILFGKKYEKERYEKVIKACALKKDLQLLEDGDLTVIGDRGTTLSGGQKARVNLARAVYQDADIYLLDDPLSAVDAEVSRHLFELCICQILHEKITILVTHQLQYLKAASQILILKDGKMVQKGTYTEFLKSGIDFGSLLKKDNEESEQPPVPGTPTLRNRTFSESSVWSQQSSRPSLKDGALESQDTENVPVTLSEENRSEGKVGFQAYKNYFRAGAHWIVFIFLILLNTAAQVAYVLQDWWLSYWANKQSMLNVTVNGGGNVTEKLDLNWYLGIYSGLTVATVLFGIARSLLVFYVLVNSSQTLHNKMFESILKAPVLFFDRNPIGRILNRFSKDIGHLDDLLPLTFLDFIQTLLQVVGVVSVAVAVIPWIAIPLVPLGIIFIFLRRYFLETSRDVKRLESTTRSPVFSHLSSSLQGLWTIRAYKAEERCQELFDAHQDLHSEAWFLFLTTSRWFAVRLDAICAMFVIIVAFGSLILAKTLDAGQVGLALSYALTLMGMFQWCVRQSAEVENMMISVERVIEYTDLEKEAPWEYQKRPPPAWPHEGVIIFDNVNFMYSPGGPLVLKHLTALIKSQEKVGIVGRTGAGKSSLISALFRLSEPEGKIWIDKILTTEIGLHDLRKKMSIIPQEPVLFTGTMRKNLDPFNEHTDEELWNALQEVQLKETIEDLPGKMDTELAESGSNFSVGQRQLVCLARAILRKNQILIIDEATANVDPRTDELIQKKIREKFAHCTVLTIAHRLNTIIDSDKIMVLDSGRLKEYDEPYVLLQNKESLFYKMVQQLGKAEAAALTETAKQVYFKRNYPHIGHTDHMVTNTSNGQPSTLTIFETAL
# IDI1 = target: T21, IDI1 (Homo sapiens, UniProt Q13907); conditions: IDI1, SEQ ID NO: 111, ATP BS
# T21 construct: endogenous in cells; host or cells: A375
# RFC1 = target: T22, RFC1 (Homo sapiens, UniProt P35251); conditions: RFC1, SEQ ID NO: 183, ATP BS
# T22 construct: to get the native cell lysate; endogenous in cells; host or cells: A375 cell lysate
# MYO1E = target: T23, MYO1E (Homo sapiens, UniProt Q12965); conditions: SEQ ID NO: 128, ATP BS
# T23 construct: to get the native cell lysate; endogenous in cells; host or cells: A375
# ABCC10 = target: T24, ABCC10 (Homo sapiens, UniProt Q5T3U5); conditions: ABCC10, SEQ ID NO: 7, ATP BS
# T24 construct: to get the native cell lysate; host or cells: A375 cell lysate
# NADK2 = target: T25, NADK2 (Homo sapiens, UniProt Q4G0N4); conditions: NADK2, SEQ ID NO: 129, ATP BS
# T25 construct: to get the native cell lysate; endogenous in cells; host or cells: A375
# HSP90AB1, HSP90AB3P = target: T26, HSP90AB1, HSP90AB3P (Homo sapiens, UniProt P08238); conditions: SEQ ID NO: 98, ATP BS
# T26 construct: to get the native cell lysate; endogenous in cells; host or cells: A375
# PFKM = target: T27, PFKM (Homo sapiens, UniProt P08237); conditions: SEQ ID NO: 159, ATP BS
# T27 construct: to get the native cell lysate; endogenous in cells; host or cells: A375 cell lysate
# LONP1 = target: T28, LONP1 (Homo sapiens, UniProt P36776); conditions: LONP1, SEQ ID NO: 115, labeling site Other
# T28 construct: to get the native cell lysate; endogenous in cells; host or cells: A375
smiles,measurement,setting,value
"Cn1c(=O)[nH]c2ccc(-c3cccc(C(=O)NC4CCn5ccnc5C4)c3)cc21 (stereo not shown) [Z36-MP5, 3-(3-methyl-2-oxo-2,3-dihydro-1H-benzo[d]imidazol-5-yl)-N-(5,6,7,8-tetrahydroimidazo[1,2-a]pyridin-7-yl)benzamide]",Inhibition (%) by 1 μM Z36-MP5,DCTPP1,12.74%
same,Inhibition (%) by 1 μM Z36-MP5,ABCB6,8.49%
same,Inhibition (%) by 1 μM Z36-MP5,AFG3L2,−4.85%
same,Inhibition (%) by 1 μM Z36-MP5,PMS2,3.36%
same,Inhibition (%) by 1 μM Z36-MP5,NOP2,1.98%
same,Inhibition (%) by 1 μM Z36-MP5,TCP1,6.76%
same,Inhibition (%) by 1 μM Z36-MP5,RBKS,−1.64%
same,Inhibition (%) by 1 μM Z36-MP5,NDUFA10,14.09%
same,Inhibition (%) by 1 μM Z36-MP5,NMNAT3,9.62%
same,Inhibition (%) by 1 μM Z36-MP5,"GATB; SEQ ID NO: 83, ATP BS",−15.35%
same,Inhibition (%) by 1 μM Z36-MP5,"GATB; SEQ ID NO: 84, ATP BS",−4.32%
same,Inhibition (%) by 1 μM Z36-MP5,ASS1,0.53%
same,Inhibition (%) by 1 μM Z36-MP5,RFC2,1.52%
same,Inhibition (%) by 1 μM Z36-MP5,"UBA2; UBA2, SEQ ID NO: 218, ATP BS",0.55%
same,Inhibition (%) by 1 μM Z36-MP5,"UBA2; UBA2, SEQ ID NO: 219, ATP BS",7.64%
same,Inhibition (%) by 1 μM Z36-MP5,SNRNP200,−14.27%
same,Inhibition (%) by 1 μM Z36-MP5,AK5,2.21%
same,Inhibition (%) by 1 μM Z36-MP5,"ABCC1; ABCC1, SEQ ID NO: 5, ATP BS",−0.23%
same,Inhibition (%) by 1 μM Z36-MP5,"ABCC1; ABCC1, SEQ ID NO: 6, ATP BS",−7.84%
same,Inhibition (%) by 1 μM Z36-MP5,AK7,13.86%
same,Inhibition (%) by 1 μM Z36-MP5,"NME1, NME2",−1.52%
same,Inhibition (%) by 1 μM Z36-MP5,RFC5,2.11%
same,Inhibition (%) by 1 μM Z36-MP5,[1],−15.29%
same,Inhibition (%) by 1 μM Z36-MP5,SKIV2L,−3.49%
same,Inhibition (%) by 1 μM Z36-MP5,"ABCC4; ABCC4, SEQ ID NO: 11, ATP BS",1.76%
same,Inhibition (%) by 1 μM Z36-MP5,"ABCC4; ABCC4, SEQ ID NO: 12, ATP BS",8.93%
same,Inhibition (%) by 1 μM Z36-MP5,IDI1,5.48%
same,Inhibition (%) by 1 μM Z36-MP5,RFC1,−12.52%
same,Inhibition (%) by 1 μM Z36-MP5,MYO1E,4.66%
same,Inhibition (%) by 1 μM Z36-MP5,ABCC10,−3.83%
same,Inhibition (%) by 1 μM Z36-MP5,NADK2,−11.03%
same,Inhibition (%) by 1 μM Z36-MP5,"HSP90AB1, HSP90AB3P",−16.94%
same,Inhibition (%) by 1 μM Z36-MP5,PFKM,−8.93%
same,Inhibition (%) by 1 μM Z36-MP5,LONP1,1.81%
